This assay concerns the target T1, APOL1 (Homo sapiens, UniProt O14791).
T1 sequence (O14791 1-398 S342G/I384M): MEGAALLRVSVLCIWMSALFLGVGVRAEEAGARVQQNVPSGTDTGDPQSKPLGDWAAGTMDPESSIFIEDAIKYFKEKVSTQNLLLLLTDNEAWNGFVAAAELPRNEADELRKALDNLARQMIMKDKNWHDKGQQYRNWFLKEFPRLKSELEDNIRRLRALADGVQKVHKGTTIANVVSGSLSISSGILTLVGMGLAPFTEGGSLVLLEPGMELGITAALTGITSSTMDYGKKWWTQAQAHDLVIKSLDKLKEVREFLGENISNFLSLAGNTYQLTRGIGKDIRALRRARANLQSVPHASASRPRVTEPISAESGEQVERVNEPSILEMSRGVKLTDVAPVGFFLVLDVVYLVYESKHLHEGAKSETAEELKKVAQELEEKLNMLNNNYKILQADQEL
As to the kind of experiment: MultiTox-Fluor Multiplex Cytotoxicity Assay in tet-inducible APOL1 T-REx-HEK293 cells (cell rescue, ratio of dead to live cells). In kind it is cell-based. The settings on record: tet-inducible transgenic APOL1 T-REx-HEK293 cell lines, 50 ng/mL tet, 24 hours; read-out: IP50 (i.e., IC50 for cell proliferation). From the text: The MultiTox-Fluor Multiplex Cytotoxicity Assay is a single-reagent-addition, homogeneous, fluorescence assay that measures the number of live and dead cells simultaneously in culture wells. The assay measures cell viability and cytotoxicity by detecting two distinct protease activities. […] The substrate enters intact cells, where it is cleaved to generate a fluorescent signal proportional to the number of living cells. […] A ratio of dead to live cells is used to normalize data.
The MultiTox reagent was added to each well and placed back in the incubator for an additional 30 minutes. The plate was read on the EnVision plate reader. A ratio of dead to live cells was used to normalize, and data was imported, analyzed, and fit using Genedata Screener (Basel, Switzerland) software. Data was normalized using percent of control, no tet (100% viability), and 50 ng/mL tet treated (0% viability), and fit using Smart Fit. The reagents, methods, and complete protocol for the MultiTox assay are described below.
Cells were washed with DPBS and then trypsinized to dissociate from the flask. Media was used to quench the trypsin, cells were then pelleted at 200 g and resuspended in fresh cell assay media (DMEM, 2% Tet-free FBS, 2 mM L-glutamine, 100 Units/mL penicillin-streptomycin). […] The plates were then incubated at room temperature for one hour.
Tetracycline is needed to induce APOL1 expression. 1 mg/mL tet stock in water was diluted to 250 ng/mL (5×) in cell assay media.
Compounds were dispensed at 200 nL in DMSO. The final top concentration was 10 μM with a 10 point 3-fold dilution in duplicate in the MultiTox assay.
20 μL was transferred from the 5× tet plate to the ARP and mixed, then 5 μL of 5× tet and the compounds were transferred to the cell plate and mixed using the Bravo. The cell plate was placed in the humidified 37° C. 5% CO2 incubator for 24 hours.
The MultiTox-Fluor Multiplex Cytotoxicity Assay was performed in accordance with the manufacturer's protocol. After cells were incubated with tet and compound for 24 hours, 25 μL of 1× MultiTox reagent was added to each well using the Multidrop dispenser; the plates were placed on a plate shaker (600 rpm) for 2 minutes, then centrifuged briefly and placed back in the 37° C. incubator for 30 minutes. The cell viability (excitation: 400 nm, emission: 486 nm) and cytotoxicity (excitation: 485 nm, emission: 535 nm) were read using the EnVision plate reader. A ratio of dead (cytotoxicity) to live (viability) cells was reported. Data was exported and analyzed in Genedata. Data was normalized using percent of control, no tet (100% viability), and 50 ng/mL tet treated (0% viability), and fit using Smart Fit settings in Genedata.

Data on 26 molecules can be found in patent US20250171459A1, “2-METHYL-4',5'-DIHYDROSPIRO[PIPERIDINE-4,7'-THIENO[2,3-C]PYRAN] DERIVATIVES AS INHIBITORS OF APOL1 AND METHODS OF USING SAME” (Vertex Pharmaceuticals Incorporated, priority 2022, published 2025).

Where only a bound is given, the exact number is not on record here.

Turning to `C[C@H]1C[C@@]2(CCN1Cc1cnn(C)c1)OCC(O)c1cc(Cl)sc12` (mixture of isomers) [Compound 818], the IC50 is below 100 nM. As to `C[C@H]1C[C@@]2(CCN1Cc1cnc(N[C@H]3CC[C@H](O)CC3)nc1)OCC(O)c1cc(Cl)sc12` (mixture of isomers) [Compound 825, (2′S, 7R)-2-chloro-1′-[[2-[(4-hydroxycyclohexyl)amino]pyrimidin-5-yl]methyl]-2′-methyl-spiro[4,5-dihydrothieno[2,3-c]pyran-7,4′-piperidine]-4-ol], the IC50 was below 100 nM. In the case of `Cc1cn2nc(CN3CC[C@]4(C[C@@H]3C)OCC(O)c3cc(Cl)sc34)cc2c(NC2CC2)n1` (mixture of isomers) [Compound 826, 2-chloro-1′-[[4-(cyclopropylamino)-6-methyl-pyrazolo[1,5-a]pyrazin-2-yl]methyl]-2′-methyl-spiro[4,5-dihydrothieno[2,3-c]pyran-7,4′-piperidine]-4-ol], the IC50 was below 100 nM. The result for `CCc1cc2c(s1)CCO[C@@]21CCN(C2CC[C@@H](NC(=O)OC(C)(C)C)C2)[C@@H](C)C1` (single isomer, unassigned) [Compound 296] reads 100 to 500 nM; that for `Cc1cc2c(s1)CCO[C@@]21CCN(C2COCC2O)[C@@H](C)C1` (single isomer, unassigned) [Compound 499], below 100 nM; that for `Cc1cc2c(s1)CCO[C@@]21CCN(C2COCC2O)[C@@H](C)C1` (single isomer, unassigned) [Compound 500], below 100 nM.

For the molecule `CC1Cc2sc(Cl)cc2C2(CCN(Cc3cnn(C)c3)[C@@H](C)C2)O1` (single isomer, unassigned) [Compound 528, (2′S)-2-chloro-2′,6-dimethyl-1′-[(1-methylpyrazol-4-yl)methyl]spiro[6,7-dihydrothieno[3,2-c]pyran-4,4′-piperidine]], the IC50 lay within 100 to 500 nM. The result for `CC1Cc2sc(Cl)cc2C2(CCN(Cc3cnn(C)c3)[C@@H](C)C2)O1` (single isomer, unassigned) [Compound 529, (2′S)-2-chloro-2′,6-dimethyl-1′-[(1-methylpyrazol-4-yl)methyl]spiro[6,7-dihydrothieno[3,2-c]pyran-4,4′-piperidine]] reads below 100 nM. The result for `C[C@H]1C[C@@]2(CCN1Cc1cnn(CCS(C)(=O)=O)c1)OCC(O)c1cc(Cl)sc12` (single isomer, unassigned) [Compound 768] reads below 100 nM; that for `C[C@H]1C[C@@]2(CCN1Cc1cnn(CCS(C)(=O)=O)c1)OCC(O)c1cc(Cl)sc12` (single isomer, unassigned) [Compound 769], below 100 nM. `C[C@H]1C[C@@]2(CCN1Cc1cnn(C)c1)OCC(O)c1cc(Cl)sc12` (single isomer, unassigned) [Compound 819]: the IC50 is below 100 nM. On to `C[C@H]1C[C@@]2(CCN1Cc1cnn(C)c1)OCC(O)c1cc(Cl)sc12` (single isomer, unassigned) [Compound 820], for which the IC50 was below 100 nM. Regarding `COC1CO[C@@]2(CCN(Cc3cnn(CCS(C)(=O)=O)c3)[C@@H](C)C2)c2sc(Cl)cc21` (single isomer, unassigned) [Compound 842, (2′S, 7R)-2-chloro-4-methoxy-2′-methyl-1′-[[1-(2-methylsulfonylethyl)pyrazol-4-yl]methyl]spiro[4,5-dihydrothieno[2,3-c]pyran-7,4′-piperidine]], the IC50 is below 100 nM. As to `COC1CO[C@@]2(CCN(Cc3cnn(CCS(C)(=O)=O)c3)[C@@H](C)C2)c2sc(Cl)cc21` (single isomer, unassigned) [Compound 843, (2′S, 7R)-2-chloro-4-methoxy-2′-methyl-1′-[[1-(2-methylsulfonylethyl)pyrazol-4-yl]methyl]spiro[4,5-dihydrothieno[2,3-c]pyran-7,4′-piperidine]], the IC50 is below 100 nM.

As for `Cc1c(Cl)sc2c1C(O)CO[C@@]21CCN(Cc2cnn(CCS(C)(=O)=O)c2)[C@@H](C)C1` (single isomer, unassigned) [Compound 859, (2′S, 7R)-2-chloro-2′,3-dimethyl-1′-[[1-(2-methylsulfonylethyl)pyrazol-4-yl]methyl]spiro[4,5-dihydrothieno[2,3-c]pyran-7,4′-piperidine]-4-ol], the IC50 is below 100 nM.

Consider `C[C@H]1C[C@@]2(CCN1Cc1cnn(CCS(C)(=O)=O)c1)OCC(O)c1cc(C(F)(F)F)sc12` (single isomer, unassigned) [Compound 881], for which the IC50 was below 100 nM. Take `C[C@H]1C[C@@]2(CCN1Cc1cnn(CCS(C)(=O)=O)c1)OCC(O)c1cc(C(F)(F)F)sc12` (single isomer, unassigned) [Compound 882]: the IC50 was below 100 nM. On to `C[C@H]1C[C@@]2(CCN1Cc1cnn(CCS(C)(=O)=O)c1)OCC(O)c1cc(C(F)(F)C(F)F)sc12` (single isomer, unassigned) [Compound 1013], for which the IC50 was below 100 nM. Consider `C[C@H]1C[C@@]2(CCN1Cc1cnn(CCS(C)(=O)=O)c1)OCC(O)c1cc(C(F)(F)C(F)F)sc12` (single isomer, unassigned) [Compound 1014, (2′S, 7R)-2′-methyl-1′-[[1-(2-methylsulfonylethyl)pyrazol-4-yl]methyl]-2-(1,1,2,2-tetrafluoroethyl)spiro[4,5-dihydrothieno[2,3-c]pyran-7,4′-piperidine]-4-ol], for which the IC50 was below 100 nM. For `CCc1cc2c(s1)C(C)COC21CCN(Cc2cnn(C)c2)CC1` (single isomer, unassigned) [Compound 1170, 2-ethyl-7-methyl-1′-[(1-methylpyrazol-4-yl)methyl]spiro[6,7-dihydrothieno[3,2-c]pyran-4,4′-piperidine]], the IC50 lay in the range of 100 to 500 nM. In the case of `CCc1cc2c(s1)C(C)COC21CCN(Cc2cnn(C)c2)CC1` (single isomer, unassigned) [Compound 1171, 2-ethyl-7-methyl-1′-[(1-methylpyrazol-4-yl)methyl]spiro[6,7-dihydrothieno[3,2-c]pyran-4,4′-piperidine]] it was 500 to 1000 nM; in that of `CCc1cc2c(s1)CCO[C@@]21CCN(C[C@H]2C[C@@H](NC(=O)C3CCc4ccccc4O3)C2)[C@H](C)C1` (stereo in doubt) [Compound 332], 100 to 500 nM; in that of `C[C@@H]1C[C@]2(CCN1Cc1cn(CC(O)C(C)(C)O)nn1)OCCc1cc(Cl)sc12` (stereo in doubt) [Compound 626, 1-(4-(((2R,4S)-2′-chloro-2-methyl-4′,5′-dihydrospiro[piperidine-4,7′-thieno[2,3-c]pyran]-1-yl)methyl)-1H-1,2,3-triazol-1-yl)-3-methylbutane-2,3-diol], below 100 nM. For the molecule `C[C@@H]1C[C@]2(CCN1Cc1cnn(C)c1)OCCc1cc(Cl)sc12` (stereo in doubt) [Compound 630, (2R,4S)-2′-chloro-2-methyl-1-((1-methyl-1H-pyrazol-4-yl)methyl)-4′,5′-dihydrospiro[piperidine-4,7′-thieno[2,3-c]pyran]], the IC50 was below 100 nM. In the case of `CCN1CC[C@]2(C[C@@H]1C)OCC(O)c1cc(Cl)sc12` (stereo in doubt) [Compound 821, (2′S,4S,7R)-2-chloro-1′-ethyl-2′-methyl-spiro[4,5-dihydrothieno[2,3-c]pyran-7,4′-piperidine]-4-ol] it was 100 to 500 nM; in that of `C[C@H]1C[C@@]2(CCN1Cc1cnn(CC(O)C(C)(C)O)c1)OCC(O)(C(F)F)c1cc(Cl)sc12` (stereo in doubt) [Compound 829, 1-[4-[[(2′S,4R,7R)-2-chloro-4-(difluoromethyl)-4-hydroxy-2′-methyl-spiro[5H-thieno[2,3-c]pyran-7,4′-piperidine]-1′-yl]methyl]pyrazol-1-yl]-3-methyl-butane-2,3-diol], below 100 nM.
